Columns and labels:
[1] = test system: TGBC24TKB (Biliary Tract Carcinoma); assay: combination Emax (second highest fraction inhibited in the dose matrix, 72 h); higher = more inhibition; extreme values may be limits of the assay
Outline: (§1)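 Cell lines in DMEM/F12 or RPMI with 10% FBS were plated in 1536-well plates, held 24 hours at 37°C, 5% CO2, then given two-drug dose matrices for 72 hours (DMSO typically 0.2%). Viability was read by CellTiter-Glo 2.0 luminescence and scaled as inhibition from 0 (vehicle wells) to 1 (blank wells). Combination Emax is the second-highest inhibition in the matrix; Bliss excess is observed combination effect minus expected EA + EB − EA·EB, EA and EB being single-agent effects.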

[2] = test system: COR-L95 (Small Cell Lung Carcinoma); assay: as above
Outline: as §1

| SMILES | combination Emax [1] | combination Emax [2] |
| --- | --- | --- |
| Cc1c2c(nn1C)CSCc1cc(n(C)n1)CSc1cc(c3ccccc3c1)OCCCc1c(C(=O)O)n(C)c3c-2c(Cl)ccc13 [AZD5991] + C[C@@H]1COCCN1C2=NC(=NC(=C2)C3(CC3)[S@](=N)(=O)C)C4=C5C=CNC5=NC=C4 [AZD6738] (first compound max 1 µM, 7x7, partner max 10 µM) | 0.672 | 0.638 |
| Cc1c2c(nn1C)CSCc1cc(n(C)n1)CSc1cc(c3ccccc3c1)OCCCc1c(C(=O)O)n(C)c3c-2c(Cl)ccc13 [AZD5991] + C[C@@H](Nc1cc(F)cc(F)c1)c1cc(C(=O)N(C)C)cc2c(=O)cc(N3CCOCC3)oc12 [AZD8186] (first compound max 1 µM, 7x7, partner max 3 µM) | 0.249 | 0.346 |
| Cc1c2c(nn1C)CSCc1cc(n(C)n1)CSc1cc(c3ccccc3c1)OCCCc1c(C(=O)O)n(C)c3c-2c(Cl)ccc13 [AZD5991] + Cc1cc2ncnn2cc1Nc1ncc2c(n1)n(C1CCOCC1)c(=O)n2C [AZD7648] (first compound max 1 µM, 7x7, partner max 10 µM) | 0.243 | 0.315 |
| Cc1c2c(nn1C)CSCc1cc(n(C)n1)CSc1cc(c3ccccc3c1)OCCCc1c(C(=O)O)n(C)c3c-2c(Cl)ccc13 [AZD5991] + Cn1cnc2c(F)c(Nc3ccc(Br)cc3Cl)c(C(=O)NOCCO)cc21 [Selumetinib] (first compound max 1 µM, 7x7, partner max 3 µM) | 0.418 | 0.306 |
| CC(=O)Nc1cccc(-n2c(=O)n(C3CC3)c(=O)c3c(Nc4ccc(I)cc4F)n(C)c(=O)c(C)c32)c1 [Trametinib] + Cc1nc(-c2cn3c(n2)-c2ccc(-c4cnn(C(C)(C)C(N)=O)c4)cc2OCC3)n(C(C)C)n1 [Taselisib] (first compound max 1 µM, 7x7, partner max 10 µM) | 0.969 | 0.439 |
| CC1(C)CCC(CN2CCN(c3ccc(C(=O)NS(=O)(=O)c4ccc(NCC5CCOCC5)c([N+](=O)[O-])c4)c(Oc4cnc5[nH]ccc5c4)c3)CC2)=C(c2ccc(Cl)cc2)C1 [Venetoclax] + C1CN(CCC1(C(=O)N[C@@H](CCO)C2=CC=C(C=C2)Cl)N)C3=NC=NC4=C3C=CN4 [Capivasertib] (first compound max 1 µM, 7x7, partner max 3 µM) | 0.253 | 0.719 |
| CC1(C)CCC(CN2CCN(c3ccc(C(=O)NS(=O)(=O)c4ccc(NCC5CCOCC5)c([N+](=O)[O-])c4)c(Oc4cnc5[nH]ccc5c4)c3)CC2)=C(c2ccc(Cl)cc2)C1 [Venetoclax] + C=CCn1c(=O)c2cnc(Nc3ccc(N4CCN(C)CC4)cc3)nc2n1-c1cccc(C(C)(C)O)n1 [AZD1775] (first compound max 1 µM, partner max 1 µM) | 0.52 | 0.862 |
| CC1(C)CCC(CN2CCN(c3ccc(C(=O)NS(=O)(=O)c4ccc(NCC5CCOCC5)c([N+](=O)[O-])c4)c(Oc4cnc5[nH]ccc5c4)c3)CC2)=C(c2ccc(Cl)cc2)C1 [Venetoclax] + CCN(CCO)CCCOc1ccc2c(Nc3cc(CC(=O)Nc4cccc(F)c4)[nH]n3)ncnc2c1 [AZD2811] (first compound max 1 µM, 7x7, partner max 1 µM) | 0.525 | 0.743 |
| CC1(C)CCC(CN2CCN(c3ccc(C(=O)NS(=O)(=O)c4ccc(NCC5CCOCC5)c([N+](=O)[O-])c4)c(Oc4cnc5[nH]ccc5c4)c3)CC2)=C(c2ccc(Cl)cc2)C1 [Venetoclax] + CN(C)CCCOc1ccc(-c2ccc3ncc4c(c3c2)n(C2CCOCC2)c(=O)n4C)cn1 [AZD0156] (first compound max 1 µM, 7x7, partner max 1 µM) | 0.268 | 0.535 |
| CC1(C)CCC(CN2CCN(c3ccc(C(=O)NS(=O)(=O)c4ccc(NCC5CCOCC5)c([N+](=O)[O-])c4)c(Oc4cnc5[nH]ccc5c4)c3)CC2)=C(c2ccc(Cl)cc2)C1 [Venetoclax] + COc1cc(Nc2ncc3c(n2)-c2ccc(Cl)cc2C(c2c(F)cccc2OC)=NC3)ccc1C(=O)O [Alisertib] (first compound max 1 µM, 7x7, partner max 10 µM) | 0.638 | 0.705 |
| CC1(C)CCC(CN2CCN(c3ccc(C(=O)NS(=O)(=O)c4ccc(NCC5CCOCC5)c([N+](=O)[O-])c4)c(Oc4cnc5[nH]ccc5c4)c3)CC2)=C(c2ccc(Cl)cc2)C1 [Venetoclax] + C[C@@H]1COCCN1C2=NC(=NC(=C2)C3(CC3)[S@](=N)(=O)C)C4=C5C=CNC5=NC=C4 [AZD6738] (first compound max 1 µM, 7x7, partner max 10 µM) | 0.705 | 0.838 |
| CC1(C)CCC(CN2CCN(c3ccc(C(=O)NS(=O)(=O)c4ccc(NCC5CCOCC5)c([N+](=O)[O-])c4)c(Oc4cnc5[nH]ccc5c4)c3)CC2)=C(c2ccc(Cl)cc2)C1 [Venetoclax] + C[C@@H](Nc1cc(F)cc(F)c1)c1cc(C(=O)N(C)C)cc2c(=O)cc(N3CCOCC3)oc12 [AZD8186] (first compound max 1 µM, 7x7, partner max 3 µM) | 0.169 | 0.782 |
| CC1(C)CCC(CN2CCN(c3ccc(C(=O)NS(=O)(=O)c4ccc(NCC5CCOCC5)c([N+](=O)[O-])c4)c(Oc4cnc5[nH]ccc5c4)c3)CC2)=C(c2ccc(Cl)cc2)C1 [Venetoclax] + Cc1cc2ncnn2cc1Nc1ncc2c(n1)n(C1CCOCC1)c(=O)n2C [AZD7648] (first compound max 1 µM, 7x7, partner max 10 µM) | 0.332 | 0.607 |
| CC1(C)CCC(CN2CCN(c3ccc(C(=O)NS(=O)(=O)c4ccc(NCC5CCOCC5)c([N+](=O)[O-])c4)c(Oc4cnc5[nH]ccc5c4)c3)CC2)=C(c2ccc(Cl)cc2)C1 [Venetoclax] + Cn1cnc2c(F)c(Nc3ccc(Br)cc3Cl)c(C(=O)NOCCO)cc21 [Selumetinib] (first compound max 1 µM, 7x7, partner max 3 µM) | 0.293 | 0.572 |

— the supplement of paper PMC11061612
